Laboratory results published in PubChem BioAssay AID248 (DTP/NCI, 2004).
Where “and” joins values, the source holds several entries; their conditions need not be identical. Equal entries are not always repeated. Toxic doses and inconclusive results are not listed. Cut-off read from the data, not from the text of the source: active = T/C of 150% or more; inactive = T/C below 125%.

Tested on: L1210 leukemia ip in BDF1 mice, survival T/C
Assay: NCI In Vivo Anticancer Drug Screen. Data for tumor model L1210 Leukemia (intraperitoneal) in B6D2F1 (BDF1) mice
Details: endpoint: mean survival time, higher = longer survival
Method in brief: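 In this screen, tumor-bearing mice given compound are compared to those given vehicle, and their survival values are reported as a treated-to-control quotient.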

[1] = dose: 100.0 mg/kg/injection, schedule: Q01DX009 (ip), vehicle: Klucel (hydroxypropylcellulose) (HPC)
[2] = dose: 100.0 mg/kg/injection, schedule: Q04DX003 (ip), vehicle: Klucel (hydroxypropylcellulose) (HPC)
[3] = dose: 200.0 mg/kg/injection, schedule: Q01DX009 (ip), vehicle: Klucel (hydroxypropylcellulose) (HPC)
[4] = dose: 200.0 mg/kg/injection, schedule: Q04DX003 (ip), vehicle: Klucel (hydroxypropylcellulose) (HPC)
[5] = dose: 400.0 mg/kg/injection, schedule: Q01DX009 (ip), vehicle: Klucel (hydroxypropylcellulose) (HPC)
[6] = dose: 400.0 mg/kg/injection, schedule: Q04DX003 (ip), vehicle: Klucel (hydroxypropylcellulose) (HPC)
[7] = dose: 100.0 mg/kg/injection, schedule: Q01DX001 (ip), vehicle: saline
[8] = dose: 200.0 mg/kg/injection, schedule: Q01DX001 (ip), vehicle: saline
[9] = dose: 400.0 mg/kg/injection, schedule: Q01DX001 (ip), vehicle: saline
[10] = dose: 100.0 mg/kg/injection, schedule: Q04DX002 (ip), vehicle: Klucel (hydroxypropylcellulose) (HPC)
[11] = dose: 200.0 mg/kg/injection, schedule: Q04DX002 (ip), vehicle: Klucel (hydroxypropylcellulose) (HPC)
[12] = dose: 400.0 mg/kg/injection, schedule: Q04DX002 (ip), vehicle: Klucel (hydroxypropylcellulose) (HPC)

Measured: T/C

c1ccc(Nc2ncn[nH]2)cc1
inactive: dose: 100.0 mg/kg/injection, schedule: Q04DX002 (ip), vehicle: gum acacia 106 % of control | dose: 200.0 mg/kg/injection, schedule: Q04DX002 (ip), vehicle: gum acacia 103 % of control | dose: 400.0 mg/kg/injection, schedule: Q04DX002 (ip), vehicle: gum acacia 117 % of control

CCCCCCCCCCCCC#N
inactive: [1] 111 % of control | [2] 110 % of control | [3] 119 % of control | [4] 113 % of control | [5] 100 % of control | [6] 117 % of control

CC12CCC(CC1Cl)C2 (centres undefined)
inactive: dose: 50.0 mg/kg/injection, schedule: Q01DX001 (ip), vehicle: carboxymethylcellulose (CMC) 93 % of control | dose: 100.0 mg/kg/injection, schedule: Q01DX001 (ip), vehicle: carboxymethylcellulose (CMC) 91 % of control | dose: 200.0 mg/kg/injection, schedule: Q01DX001 (ip), vehicle: carboxymethylcellulose (CMC) 91 % of control | dose: 400.0 mg/kg/injection, schedule: Q01DX001 (ip), vehicle: carboxymethylcellulose (CMC) 96 % of control

CSCCC(NC(=O)CN)C(=O)O (centres undefined)
inactive: [7] 96 % of control | [8] 104 % of control | [9] 102 % of control

Cc1[nH]c2ccc(C(C)(C)c3ccccc3)cc2c1C
inactive: [7] 98 % of control | [8] 91 % of control | [9] 88 % of control

COc1cccc(NC(=O)c2ccc(C(=O)Nc3cccc(OC)c3)cc2)c1
inactive: dose: 50.0 mg/kg/injection, schedule: Q01DX001 (ip), vehicle: saline 98 % of control | [7] 96 % of control | [8] 91 % of control

Cc1cc(C)c(N)c(C)n1
inactive: dose: 12.5 mg/kg/injection, schedule: Q04DX003 (ip), vehicle: Klucel (hydroxypropylcellulose) (HPC) 95 % of control | dose: 25.0 mg/kg/injection, schedule: Q04DX003 (ip), vehicle: Klucel (hydroxypropylcellulose) (HPC) 97 % of control | dose: 50.0 mg/kg/injection, schedule: Q04DX003 (ip), vehicle: Klucel (hydroxypropylcellulose) (HPC) 93 % of control

Cc1cc(C)c(NC(=O)c2cccc([N+](=O)[O-])c2C(=O)O)cc1C
inactive: [10] 105 % of control | [11] 96 % of control | [12] 108 % of control

CC(C)(O)c1cccc(F)c1
inactive: dose: 50.0 mg/kg/injection, schedule: Q01DX009 (ip), vehicle: saline with Tween-80 90 % of control | dose: 100.0 mg/kg/injection, schedule: Q01DX009 (ip), vehicle: saline with Tween-80 93 % of control | dose: 200.0 mg/kg/injection, schedule: Q01DX009 (ip), vehicle: saline with Tween-80 121 % of control

COc1cc(C=O)c(Oc2cc(C=O)ccc2OC)cc1OC
inactive: [2] 97 % of control | [4] 100 % of control | [6] 103 % of control

CCn1c(=O)c2ccccc2c2cc([N+](=O)[O-])ccc21
inactive: [2] 90 % of control | [4] 97 % of control | [6] 97 % of control

CC(C)=CCOc1ccc(C(=O)O)cc1
inactive: [7] 100 % of control | [8] 116 % of control | [9] 107 % of control

S=c1[nH]ccc2n[nH]nc12
inactive: dose: 100.0 mg/kg/injection, schedule: Q04DX003 (ip), vehicle: saline with Tween-80 101 % of control | dose: 200.0 mg/kg/injection, schedule: Q04DX003 (ip), vehicle: saline with Tween-80 98 % of control | dose: 400.0 mg/kg/injection, schedule: Q04DX003 (ip), vehicle: saline with Tween-80 101 % of control

CCC(=O)Oc1c(CC=C(C)C)c(OC(=O)CC)c2ccccc2c1OC(=O)CC
inactive: [1] 93 % of control | [2] 90 % of control | [3] 93 % of control | [4] 94 % of control | [5] 88 % of control | [6] 96 % of control

CSc1ccccc1NC(=O)c1ccccc1
inactive: [10] 93 % of control | [11] 86 % of control | [12] 96 % of control

CCC(C(=O)NC(C)c1ccc(-c2ccccc2)cc1)c1ccccc1 (centres undefined)
inactive: [1] 87 % of control | [3] 92 % of control | [5] 86 % of control

Clc1ccc(N=Cc2ccc3c(c2)OCO3)cc1
inactive: dose: 100.0 mg/kg/injection, schedule: Q01DX009 (ip), vehicle: other 93 % of control | dose: 200.0 mg/kg/injection, schedule: Q01DX009 (ip), vehicle: other 98 % of control | dose: 400.0 mg/kg/injection, schedule: Q01DX009 (ip), vehicle: other 90 % of control

CC(=O)OCc1c(COC(C)=O)c(-c2ccc(Cl)cc2)n2c1CCC2
inactive: dose: 12.5 mg/kg/injection, schedule: Q01DX009 (ip), vehicle: Klucel (hydroxypropylcellulose) (HPC) 95 % of control | dose: 25.0 mg/kg/injection, schedule: Q01DX009 (ip), vehicle: Klucel (hydroxypropylcellulose) (HPC) 102 % of control | dose: 50.0 mg/kg/injection, schedule: Q01DX009 (ip), vehicle: Klucel (hydroxypropylcellulose) (HPC) 117 % of control

S=C(N/N=C/c1ccncc1)Nc1ccccc1
inactive: dose: 100.0 mg/kg/injection, schedule: Q01DX001 (ip), vehicle: Klucel (hydroxypropylcellulose) (HPC) 96 % of control | [1] 97 % of control and 100 % of control | [10] 102 % of control and 91 % of control | [2] 103 % of control | dose: 200.0 mg/kg/injection, schedule: Q01DX001 (ip), vehicle: Klucel (hydroxypropylcellulose) (HPC) 100 % of control | [3] 108 % of control | [11] 98 % of control and 102 % of control | [4] 106 % of control | dose: 400.0 mg/kg/injection, schedule: Q01DX001 (ip), vehicle: Klucel (hydroxypropylcellulose) (HPC) 98 % of control | [5] 94 % of control and 104 % of control | [12] 97 % of control and 98 % of control | [6] 94 % of control

Cc1ccc(S(=O)(=O)OCC2C(COS(=O)(=O)c3ccc(C)cc3)C3C4C5C2C2C3C4C52)cc1 (centres undefined)
inactive: [10] 98 % of control | [11] 90 % of control | [12] 94 % of control

CC(=O)N(c1ccccc1OS(C)(=O)=O)S(C)(=O)=O
inactive: [2] 109 % of control | [4] 100 % of control | [6] 104 % of control
